These results are taken from US20030083385A1, “Use of benzenesulfonyl (thioureas or ure as) for treating of septic shock or gene ralized inflammatory syndrome” (priority 2001, published 2003).

Assay [1] relates to anesthetized pigs given lipopolysaccharide (LPS) as a bolus. Kind of assay: Endotoxin (LPS) model in anesthetized pigs, LPS bolus. The following applies: LPS 1 μg/kg bolus, n=5, LPS raised pressure from 30.6±0.7 to 67.2±6.0 mm Hg, compound 5 mg/kg intravenously, p<0.01. It counts as in vivo, pig. An excerpt:
(§1) The suitability of a compound of formula I for treating pathological changes in blood pressure associated with septic shock or occurring in the generalized inflammatory syndrome (SIRS) state can be established, for example, in the pharmacological model in the pig that is described further below (endotoxin model, synonym: LPS model (LPS=lipopolysaccharide)). The effect can also be examined, for example, in rats, mice, cats, guinea pigs, rabbits, dogs or monkeys.
In another experimental approach performed on anesthetized pigs, 1 μg/kg of LPS was administered as a bolus (n=5). This led, within 15-20 min, to a dangerous increase in the systolic pulmonary arterial pressure from 30.6±0.7 mm Hg to 67.2±6.0 mm Hg.

The test system of assay [2] is anesthetized pigs infused continuously with lipopolysaccharide (LPS). Kind of assay: Endotoxin (LPS) model in anesthetized pigs, continuous LPS infusion. It counts as in vivo, pig.
Description: as §1
Anesthetized pigs were infused continuously with lipopolysaccharide (LPS) (0.15 μg/kg/h; n=7). This led to a decrease in the peripheral resistance. After 3.9 hours, 1-(5-(2-(5-chloro-2-methoxybenzamido)ethyl)-2-(2-methoxyethoxy)phenyl-sulfonyl)-3-methylthiourea sodium salt was administered at a dose of 5-10 mg/kg (intravenously; aqueous solution). […] The peripheral resistance, which under the effect of the endotoxin had fallen to 60.8±4.1% of the starting value that had been present prior to administering the endotoxin, rose to 80.8±5.1% of the starting value that had been present prior to administering the endotoxin (p<0.0001).

Where a name gives a salt, the structure may show the parent alone.

As for `CNC(=S)NS(=O)(=O)c1cc(CCNC(=O)c2cc(Cl)ccc2OC)ccc1OCCOC` [1-(5-(2-(5-chloro-2-methoxybenzamido)ethyl)-2-(2-methoxyethoxy)phenyl-sulfonyl)-3-methylthiourea sodium salt], the “systolic pulmonary arterial pressure after administration” value in assay [1] stood at 46.6±4.0 mm Hg. In addition, the “rise of peripheral mean arterial blood pressure” value in assay [2] (LPS 0.15 μg/kg/h continuous infusion, n=7, compound 5-10 mg/kg intravenously (aqueous solution) after 3.9 hours, p<0.001) amounted to 19.6±3.2 mm Hg. The “peripheral resistance after administration” value in assay [2] (LPS 0.15 μg/kg/h continuous infusion, n=7, compound 5-10 mg/kg intravenously after 3.9 hours, had fallen to 60.8±4.1% under endotoxin, p<0.0001) is listed as 80.8±5.1 % of the starting value. In assay [2] (LPS model, infusion, total dose 5-10 mg/kg, seen already after a dose of 1-2.5 mg/kg had been infused), the “effect when administered as an infusion” value was “marked improvement”.
